One test addresses T1, κ receptor (Mus musculus, UniProt P33534).
T1 construct: from tissue; host or cells: mouse (male ddy) vas deferens
Briefly: Opioid activity test using an extracted mouse vas deferens preparation, Ke with norBNI. The settings on record: for receptor selectivity of agonist (κ): in words; for Ke, norBNI: κ, norBNI added. Set-up: species or system male ddy mouse. How it is done: (§1) A male ddy mouse was used in this test. The vas deferens extracted from the animal was suspended in a Magnus tube filled with Krebes-Henseleit solution (NaCl 118 mM; KCl 4.7 mM; CaCl2 2.5 mM; KH2 PO4 1.1 mM; NaHCO3 25 mM; Glucose 11 mM) warmed to 37° C. and ventilated with 5% carbon dioxide and 95% oxygen. Electrical stimulus was performed at 0.1 Hz for 5.0 ms by means of ring-shaped platinum electrodes located above and below. Tissue contractions were recorded on a polygraph using an isometric transducer.
(§2) After adequately washing with nutrient solution and the contraction reaction stabilized, the μ agonist, naloxone, the δ agonist, NTI, or the κ agonist, norBNI, was added after which the test compound was again cumulatively added after roughly 20 minutes. The Ke value was calculated using the following calculation formula from the difference in the efficacies of both agonists.
Ke=[Conc. of added agonist]/(IC50 ratio-1)
IC50 ratio=IC50 in the presence of agonist/IC50 in the absence of agonist

In test [1] the test system is extracted mouse vas deferens preparation. As to the kind of experiment: Opioid activity test using an extracted mouse vas deferens preparation (suppression of electrically induced contractions). Set-up: species or system male ddy mouse. To be noted: electrical stimulus 0.1 Hz, 37° C. The method, then: as §1, §2
The test system of test [2] is acetic acid-induced writhing in ddy mice. As to the kind of experiment: animal or person. The settings on record: for ED50: s.c. 15 minutes before acetic acid. Type of test: in vivo, 5 week old ddy mice. The method, then:
5 week old ddy mice were used in this test. After intraperitoneal administration of 0.1 ml of 0.6% aqueous acetic acid per 10 g of body weight, the number of writhing reactions that occurred in 10 minutes starting 10 minutes after administration was evaluated for the indicator. The test drug was administered subcutaneously into the backs of the animals 15 minutes before administration of acetic acid.

Test [3] is described as follows: Diuretic action (urine output for 5 hours after physiological saline loading in rats). Type of test: in vivo, male Wistar rats. To be noted: for ED (200% urine output) / ED (500% urine output): Rattus norvegicus, sc, 5 hours after saline 20 ml/kg p.o.; for ED (200% urine output): dose giving urine output of 200 (non-dosed group = 100); for ED (500% urine output): dose giving urine output of 500 (non-dosed group = 100). How it is done: 7-8 week old male Wistar rats were used in this test after prohibiting from drinking water for 1 hour before the start of testing. After discharging any urine accumulated in the bladder by gently stimulating the lower abdomens of the animals, the drug was administered subcutaneously. After 30 minutes, the animals were then forcibly given 20 ml/kg of physiological saline orally. The animals were placed in metabolic cages immediately after administration of the drug (2 animals/cage) and urine output for 5 hours after loading with physiological saline was measured. Drug efficacy was expressed in the form of those doses resulting in urine outputs of 200 and 500, respectively, when the urine output of a non-dosed group was taken to be 100. Those doses were expressed as the ED200 and ED500 values, respectively.

The target in the next test is T2, δ receptor (Mus musculus, UniProt P32300).
T2 construct: The vas deferens extracted from the animal was suspended in a Magnus tube; from tissue; host or cells: mouse (male ddy) vas deferens
More on the design: species or system male ddy mouse. To be noted: mouse vas deferens, δ, NTI added.

The mark [4] stands for this setting: Mus musculus, sc, read-out: ED50.

Counter-ions that a name gives are not always drawn. Like-named read-outs stand apart in the source and are kept apart here.

T2 sequence (P32300 whole entry): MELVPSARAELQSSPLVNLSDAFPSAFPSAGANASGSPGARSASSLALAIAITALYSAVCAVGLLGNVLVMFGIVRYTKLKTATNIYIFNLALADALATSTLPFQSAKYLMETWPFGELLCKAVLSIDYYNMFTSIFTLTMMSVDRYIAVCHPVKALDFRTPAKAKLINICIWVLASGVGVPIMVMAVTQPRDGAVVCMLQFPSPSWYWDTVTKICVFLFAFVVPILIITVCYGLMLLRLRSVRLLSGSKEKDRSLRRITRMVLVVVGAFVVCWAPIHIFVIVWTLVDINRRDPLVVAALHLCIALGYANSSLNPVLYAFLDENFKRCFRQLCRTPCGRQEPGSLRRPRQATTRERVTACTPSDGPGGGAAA
T1 sequence (P33534 whole entry): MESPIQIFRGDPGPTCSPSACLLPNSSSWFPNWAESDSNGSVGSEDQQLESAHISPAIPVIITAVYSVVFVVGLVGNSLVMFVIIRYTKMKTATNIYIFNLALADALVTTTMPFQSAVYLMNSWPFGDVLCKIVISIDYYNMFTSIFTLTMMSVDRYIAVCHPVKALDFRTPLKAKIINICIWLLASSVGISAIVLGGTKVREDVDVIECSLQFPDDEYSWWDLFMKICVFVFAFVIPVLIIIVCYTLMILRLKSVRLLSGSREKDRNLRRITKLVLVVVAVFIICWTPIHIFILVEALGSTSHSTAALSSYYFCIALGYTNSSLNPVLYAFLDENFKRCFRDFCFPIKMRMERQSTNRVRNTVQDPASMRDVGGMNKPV

A word on the IC50: it is the midpoint of a concentration-inhibition curve. High values mean a need for much substance, low ones inhibition by little substance. As a reminder, the ED50 is the midpoint of the dose-response relation. Turning to `CN(C(=O)CC(=O)c1ccccc1)[C@@H]1CC[C@@]2(O)[C@H]3Cc4ccc(O)c5c4[C@@]2(CCN3CC2CC2)[C@H]1O5` [Compound 103, 17-cyclopropylmethyl-3,14β-dihydroxy-4,5α-epoxy-6β-(N-methylbenzoylacetamido)morphinan.cndot.tartrate], at κ receptor, the “receptor selectivity of agonist (κ)” value is given as “selective agonists for κ receptors” and the “Ke, norBNI” value turned out to be 0.657 nM. Besides, the midpoint of inhibition in test [1], the IC50, lay at 11 nM. The ED50 in test [2] (setting [4]) was 0.069 mg/kg. In test [3], this compound yielded an ED (200% urine output) of 0.0827 mg/kg and an ED (500% urine output) of 5.65 mg/kg.

In the case of `CN(C(=O)/C=C/c1ccco1)[C@@H]1CC[C@@]2(O)[C@H]3Cc4ccc(O)c5c4[C@@]2(CCN3CC2CC2)[C@H]1O5` [Compound 70, 17-cyclopropylmethyl-3,14β-dihydroxy-4,5α-epoxy-6β-[N-methyl-trans-3-(2-furyl)acrylamido]morphinan.cndot.hydrochloride], at κ receptor, the “receptor selectivity of agonist (κ)” value was “selective agonists for κ receptors” and the “Ke, norBNI” value amounted to 0.198 nM. Moreover, in test [1], the IC50 was found to be 0.545 nM. Further, the ED50 in test [2] (setting [4]) came to 0.0016 mg/kg.

Regarding `CN(C(=O)/C=C/c1ccc(Br)cc1)[C@@H]1CC[C@@]2(O)[C@H]3Cc4ccc(O)c5c4[C@@]2(CCN3CC2CC2)[C@H]1O5` [Compound 156, 17-cyclopropylmethyl-3,14β-dihydroxy-4,5α-epoxy-6β-(N-methyl-4-bromocinnamamido)morphinan hydrobromide], on κ receptor, the “receptor selectivity of agonist (κ)” value is reported as “selective agonists for κ receptors” and the “Ke, norBNI” value is listed as 0.091 nM. The ED50 in test [2] (setting [4]) came out at 0.0056 mg/kg. In test [3], this compound gave an ED (200% urine output) of 0.00545 mg/kg and an ED (500% urine output) of 0.355 mg/kg.

Consider `CN(C(=O)/C=C/c1ccsc1)[C@H]1CC[C@@]2(O)[C@H]3Cc4ccc(O)c5c4[C@@]2(CCN3CC2CC2)[C@H]1O5` [Compound 91, 17-cyclopropylmethyl-3,14β-dihydroxy-4,5α-epoxy-6α-[N-methyl-trans-3-(3-thienyl)acrylamido]morphinan.cndot.tartrate], for which, on κ receptor, the “receptor selectivity of agonist (κ)” value is given as “selective agonists for κ receptors” and the “Ke, norBNI” value is given as 0.699 nM. The same compound showed an IC50 in test [1] of 0.378 nM. In test [2] (setting [4]), the ED50 was found to be 0.019 mg/kg. In test [3], this compound showed an ED (200% urine output) of 0.0094 mg/kg and an ED (500% urine output) of 0.96 mg/kg. On δ receptor, the “Ke, NTI” value came out at 450 nM.

Take `CN(C(=O)/C=C/C1CCCCC1)[C@H]1CC[C@@]2(O)[C@H]3Cc4ccc(O)c5c4[C@@]2(CCN3CC2CC2)[C@H]1O5` [Compound 50, 17-cyclopropylmethyl-4,5α-epoxy-3,14β-dihydroxy-6α-(N-methyl-trans-3-cyclohexylacrylamido)morphinan.cndot.hydrochloride]: the median effective dose (ED50) in test [2] (setting [4]) was 0.011 mg/kg. Besides, in test [3], the ED (200% urine output) amounted to 0.0021 mg/kg and the ED (500% urine output) was 0.0325 mg/kg.

For `CN(C(=O)/C=C/c1ccc(Cl)c(Cl)c1)[C@H]1CC[C@@]2(O)[C@H]3Cc4ccc(O)c5c4[C@@]2(CCN3CC2CC2)[C@H]1O5` [Compound 86, 17-cyclopropylmethyl-3,14β-dihydroxy-4,5α-epoxy-6α-(N-methyl-3,4-dichlorocinnamamido)morphinan.cndot.hydrochloride], in test [2] (setting [4]), the ED50 turned out to be 0.0347 mg/kg. Moreover, in test [3], the ED (200% urine output) was 0.0057 mg/kg and the ED (500% urine output) amounted to 0.229 mg/kg.

With `CN(C(=O)Cc1cccc(F)c1)[C@H]1CC[C@@]2(O)[C@H]3Cc4ccc(O)c5c4[C@@]2(CCN3CC2CC2)[C@H]1O5` [Compound 37, 17-cyclopropylmethyl-3,14β-dihydroxy-4,5α-epoxy-6α-(N-methyl-3-fluorophenylacetamido)morphinan.cndot.hydrochloride], the ED50 in test [2] (setting [4]) came to 0.0041 mg/kg. In test [3], this compound gave an ED (200% urine output) of 0.365 mg/kg.

Take `CN(C(=O)CC(=O)c1ccccc1)[C@H]1CC[C@@]2(O)[C@H]3Cc4ccc(O)c5c4[C@@]2(CCN3CC2CC2)[C@H]1O5` [Compound 98, 17-cyclopropylmethyl-3,14β-dihydroxy-4,5α-epoxy-6α-(N-methylbenzoylacetamido)morphinan.cndot.tartrate]: at κ receptor, the “receptor selectivity of agonist (κ)” value is “selective agonists for κ receptors” and the “Ke, norBNI” value is listed as 1.35 nM. Besides, in test [1], inhibition was half-maximal at 1.3 nM (IC50). Also, the ED50 in test [2] was determined as 0.0068 mg/kg. Moreover, in test [3], the ED (200% urine output) came out at 0.0065 mg/kg and the ED (500% urine output) worked out at 0.206 mg/kg.

In the case of `CN(C(=O)Cc1csc2ccccc12)[C@H]1CC[C@@]2(O)[C@H]3Cc4ccc(O)c5c4[C@@]2(CCN3CC2CC2)[C@H]1O5` [Compound 107, 17-cyclopropylmethyl-3,14β-dihydroxy-4,5α-epoxy-6α-(N-methyl-3-benzo[b]thienylacetamido)morphinan.cndot.hydrochloride], in test [2] (setting [4]), the ED50 is 0.023 mg/kg. In test [3], this compound returned an ED (200% urine output) of 0.0061 mg/kg and an ED (500% urine output) of 0.2 mg/kg.

As for `CCCCCC(=O)N(C)[C@@H]1CC[C@@]2(O)[C@H]3Cc4ccc(O)c5c4[C@@]2(CCN3CC2CC2)[C@H]1O5` [Compound 62, 17-cyclopropylmethyl-3,14β-dihydroxy-4,5α-epoxy-6β-(N-methylhexanamido)morphinan.cndot.tartrate], at κ receptor, the “receptor selectivity of agonist (κ)” value was “selective agonists for κ receptors” and the “Ke, norBNI” value was found to be 0.203 nM. The compound also registered an IC50 in test [1] of 14.7 nM. Also, the ED50 in test [2] (setting [4]) worked out at 0.077 mg/kg. Further, in test [3], the ED (200% urine output) was determined as 0.101 mg/kg and the ED (500% urine output) turned out to be 7.04 mg/kg. Also, the “Ke, NTI” value at δ receptor is reported as 90.2 nM.

As for `CCCCCCC(=O)N(C)[C@H]1CC[C@@]2(O)[C@H]3Cc4ccc(O)c5c4[C@@]2(CCN3CC2CC2)[C@H]1O5` [Compound 46, 17-cyclopropylmethyl-3,14β-dihydroxy-4,5α-epoxy-6α-(N-methylheptanamido)morphinan.cndot.hydrochloride], at κ receptor, the “receptor selectivity of agonist (κ)” value is “selective agonists for κ receptors” and the “Ke, norBNI” value turned out to be 0.440 nM. For the same compound, 1.05 nM corresponded to half-maximal inhibition in test [1] (IC50). Besides, the median effective dose (ED50) in test [2] (setting [4]) came out at 0.013 mg/kg.

For `C/C=C/C=C/C(=O)N(C)[C@@H]1CC[C@@]2(O)[C@H]3Cc4ccc(O)c5c4[C@@]2(CCN3CC2CC2)[C@H]1O5` [Compound 178, 17-cyclopropylmethyl-3,14β-dihydroxy-4,5α-epoxy-6β-(N-methyl-trans,trans-2,4-hexadienoylamido)morphinan tartrate], the ED50 in test [2] (setting [4]) amounted to 0.0016 mg/kg. The analgesic activity entry in test [2] (s.c., in words) was “particularly strong analgesic activity”. In test [3], this compound gave an ED (200% urine output) of 0.00094 mg/kg and an ED (500% urine output) of 0.0045 mg/kg. The “Diuretic action (in words)” value in test [3] (s.c., from ED200 values) is listed as “extremely strong diuretic action”.

For the compound `CN(C(=O)Cc1cccc([N+](=O)[O-])c1)[C@H]1CC[C@@]2(O)[C@H]3Cc4ccc(O)c5c4[C@@]2(CCN3CC2CC2)[C@H]1O5` [Compound 83, 17-Cyclopropylmethyl-3,14β-dihydroxy-4,5α-epoxy-6α-(N-methyl-3-nitrophenylacetamido)morphinan.cndot.hydrochloride], in test [2] (setting [4]), the ED50 was 0.008 mg/kg. Moreover, in test [3], the ED (200% urine output) was found to be 0.0261 mg/kg and the ED (500% urine output) turned out to be 2.99 mg/kg.

For `CN(C(=O)/C=C/c1cccc(F)c1)[C@@H]1CC[C@@]2(O)[C@H]3Cc4ccc(O)c5c4[C@@]2(CCN3CC2CC2)[C@H]1O5` [Compound 102, 17-cyclopropylmethyl-3,14β-dihydroxy-4,5α-epoxy-6β-(N-methyl-3-fluorocinnamamido)morphinan.cndot.tartrate], at κ receptor, the “receptor selectivity of agonist (κ)” value is on record as “selective agonists for κ receptors” and the “Ke, norBNI” value was determined as 2.37 nM. Besides, half-maximal inhibition in test [1] (IC50) was put at 1.6 nM. Besides, the 50% effective dose (ED50) in test [2] (setting [4]) came to 0.0019 mg/kg. Also, in test [3], the ED (200% urine output) amounted to 0.0014 mg/kg and the ED (500% urine output) is 0.0154 mg/kg. Moreover, the “Ke, NTI” value on δ receptor is on record as 276 nM.

For the origin of these results see patent US6177438A, “Morphinan derivatives and pharmaceutical use thereof” (priority 1993, dated 2001).
